Experimental data reported in PubChem BioAssay AID2141 (Sanford-Burnham Center for Chemical Genomics, 2009).
Activity calls are given as the source filed them. No rule for the calls is given here.

Molecular target: E3 ubiquitin-protein ligase SIAH1 (Homo sapiens) (UniProt Q8IUQ4)
Test: Siah-1 binding antagonists, dose response, biochemical, TR-FRET (AID 2141)
Conditions: TR-FRET biochemical assay

Cc1cc(Cl)ccc1NC(=O)CN1CCC(C(O)(c2ccccc2)c2ccccc2)CC1
IC50: > 200 µM (inactive)

O=C1C=C(NCc2ccccc2)c2ccccc2C1=O
IC50: 15.6 µM

COc1cc(/C=C2/SC(=S)N(Cc3ccccc3)C2=O)cc(Cl)c1O
IC50: > 200 µM (inactive)

O=C(Nc1cc([N+](=O)[O-])ccc1N1CCOCC1)c1cccs1
IC50: > 200 µM (inactive)

C=C(C)Cn1c(N2CCN(CC)CC2)nc2c1c(=O)[nH]c(=O)n2C
IC50: > 200 µM (inactive)

CCCCn1c(NS(=O)(=O)c2ccc(C)cc2)c(S(=O)(=O)c2ccccc2)c2nc3ccccc3nc21
IC50: 3.41 µM

CCCCNc1nnc(Cc2ccc(Cl)cc2)c(=O)[nH]1
IC50: inactive

O=C(CCn1ccc2ccccc21)NC1CCCc2ccccc21 (stereo unspecified)
IC50: > 200 µM (inactive)

COc1ccc(CCNC(=O)CCC(=O)N2CCOc3ccc(C)cc32)cc1OC
IC50: > 200 µM (inactive)

COc1cc(/C=C(\C#N)c2nc3ccccc3[nH]2)ccc1OC(=O)c1ccco1
IC50: 6.22 µM

COC(=O)c1cc(NC(=O)c2ccccc2)c(=O)oc1/C=C/Nc1ccc(Oc2ccccc2)cc1
IC50: > 200 µM (inactive)

Cc1ccccc1-c1nc2c3ccccc3nc(=S)n2[nH]1
IC50: > 200 µM (inactive)

CN1C(=O)NC(c2ccccc2[N+](=O)[O-])C2=C1CCCC2=O (stereo unspecified)
IC50: > 200 µM (inactive)

Nc1ccc(O)c2c1C(=O)c1ccccc1C2=O
IC50: < 1.56 µM

Oc1ccc(N=Cc2ccc(OCc3ccccc3)cc2)cc1
IC50: 3.74 µM

Oc1c(Br)cc(Br)cc1CNc1ccc(F)cc1
IC50: inactive

O=C(CSc1ccc(Br)c2cccc(Cl)c12)Nc1ccc(S(=O)(=O)Nc2nccs2)cc1
IC50: > 200 µM (inactive)

O=C(O)c1ccc(/C=N/NC(=O)c2ccc(CN3c4cccc5cccc(c45)S3(=O)=O)cc2)cc1
IC50: 18.3 µM

O=C(NCc1ccc(Cl)cc1)c1cc(-c2cccs2)on1
IC50: 6.3 µM

CC(=O)c1ccc(S(=O)(=O)Nc2ccc(-c3ccc4nnc(C)n4n3)cc2)cc1
IC50: 9.93 µM

CC[n+]1c(/C=C/N(C)c2ccccc2)sc2ccc(Cl)cc21
IC50: > 200 µM (inactive)

CCCCn1c(NS(=O)(=O)c2ccccc2)c(S(=O)(=O)c2ccc(C)cc2)c2nc3ccccc3nc21
IC50: 1.6 µM

CN(Cc1c(C(=O)N/N=C/c2ccc(F)cc2)nnn1-c1nonc1N)C1CCCCC1
IC50: > 200 µM (inactive)

COCCn1nnnc1C(c1cc2ccc(OC)cc2[nH]c1=O)N1CCc2ccccc2C1 (stereo unspecified)
IC50: 11.8 µM

COC(=O)c1ccc2c(c1)C(C)(C)C(/C=C/c1ccccc1O)=[N+]2C
IC50: > 200 µM (inactive)

O=C(Nc1ccccc1N1CCCCC1)c1ccc(-c2cccc(Cl)c2)o1
IC50: > 200 µM (inactive)

COc1cc(CNc2ccc(O)cc2)cc(Br)c1OCc1ccccc1F
IC50: 4.66 µM

c1ccc(C(c2ccccc2)N2CCN(C(c3ccccn3)c3nnnn3C3CCCC3)CC2)cc1 (stereo unspecified)
IC50: > 200 µM (inactive)

COC(=O)c1c(C(=O)OC)c2cccc3cc(-c4ccccc4)c4ccc1c4n32
IC50: 14.6 µM

COc1cc(NS(=O)(=O)c2ccc(NC(=S)NC(=O)/C=C/c3ccc(F)cc3)cc2)ncn1
IC50: > 200 µM (inactive)

CCOc1cc(/C=C(\C#N)C(=O)Nc2ccccc2C(=O)O)ccc1OC(=O)c1ccc(C)cc1
IC50: > 200 µM (inactive)

CC(=O)Nc1ccc(N=Cc2c(O)c(C(=O)Nc3ccccc3)cc3ccccc23)cc1
IC50: > 200 µM (inactive)

CCC(C)N1C(=O)/C(=C/c2c(NCCCOC(C)C)nc3c(C)cccn3c2=O)SC1=S (stereo unspecified)
IC50: > 200 µM (inactive)

COc1ccc(CCNC(=O)c2ccc(S(=O)(=O)N(C)c3ccccc3)cc2)cc1OC
IC50: > 200 µM (inactive)

Cc1ccc(S(=O)(=O)N2CCC(=O)N(C(COCc3cccc(C)c3)Cc3ccccc3)CC2)cc1 (stereo unspecified)
IC50: > 200 µM (inactive)

O=C(Nc1ccc(Br)cc1)c1ccc(N2C(=O)C3CC=CCC3C2=O)cc1 (stereo unspecified)
IC50: 4.27 µM

CCCCNc1c2c3c(cccc3n(C)c1=O)C(=O)c1ccccc1-2
IC50: > 200 µM (inactive)

COC(=O)C1CC(=O)N(c2ccc(OCc3ccccc3Cl)cc2)C1 (stereo unspecified)
IC50: > 200 µM (inactive)

COc1ccc(CNC(=S)Nc2cc(OC)ccc2OC)cc1
IC50: > 200 µM (inactive)

NS(=O)(=O)c1ccc(NC(=O)c2cccc(N3C(=O)c4ccccc4C3=O)c2)cc1
IC50: 10.6 µM

CCOc1ccccc1CNc1ccc(O)cc1
IC50: 5.11 µM

COC(=O)c1cccc(Cn2c(Cl)c(/C=N/NC(=O)c3ccccc3Cl)sc2=O)c1
IC50: 19 µM

O=C1CCCC(O)=C1N=Nc1ccc(C(=O)O)cc1
IC50: < 1.56 µM

O=C(Nc1ccc(Cl)cc1)OCc1cn(-c2ccccc2)nn1
IC50: > 200 µM (inactive)

O=c1[nH]n(-c2ccc([N+](=O)[O-])cc2)c(=O)c2ccccc12
IC50: 11.2 µM

CCCCn1c(NS(=O)(=O)c2ccccc2)c(C(=O)OCC)c2nc3ccccc3nc21
IC50: 2.16 µM

CCN(CC)CCOC(=O)c1ccc(N/C=C(/C#N)c2nc(-c3cc4ccccc4oc3=O)cs2)cc1
IC50: > 200 µM (inactive)

Cc1ccc(C(=O)NC2CC3CCCC(C2)N3C(=O)NC2CCCCC2)cc1 (stereo unspecified)
IC50: > 200 µM (inactive)

C=CCc1cccc2cc(C(=O)Nc3ccc(CC(=O)O)cc3)c(=O)oc12
IC50: 9.1 µM

CSc1ccccc1C(=O)NC(C)c1ccc(-n2ccnc2)cc1 (stereo unspecified)
IC50: inactive

Cc1ccc(CNc2ccc(O)cc2)cc1
IC50: 4.51 µM

O=C(Nc1ccc(Oc2ccsc2C(=O)O)cc1)c1ccccc1F
IC50: inactive

NS(=O)(=O)c1ccc(NS(=O)(=O)c2ccc(NC(=O)c3ccc(-c4ccccc4)cc3)cc2)cc1
IC50: < 1.56 µM

CC(C)(C)c1cc(-c2csc(Nc3ccccc3)[n+]2Cc2ccc(C(=O)O)cc2)cc(C(C)(C)C)c1O
IC50: 6.69 µM

O=C(N/N=C/c1ccc(OC(=O)c2cccs2)cc1)c1cccc(F)c1
IC50: 1.79 µM

CCn1c(O)c(C=Nc2ccc(N3CCOCC3)cc2)c(=O)n(CC)c1=S
IC50: > 200 µM (inactive)

COc1cc(CC(=O)NCc2ccc3c(c2)OCO3)cc(OC)c1OC
IC50: inactive

Cc1ccc(C(=O)COc2ccccc2C(=O)Nc2ccccc2)cc1
IC50: > 200 µM (inactive)

CCN(CC)CCOC(=O)c1ccc(N/C=C(/C#N)c2nc(-c3ccc(OC)c(OC)c3)cs2)cc1
IC50: < 1.56 µM

O=C(O)c1cc(Cl)c(Cl)cc1C(=O)Nc1cccc2cccnc12
IC50: 7.1 µM

O=C(O)CCCNc1cc(N2CCN(C(=O)c3ccco3)CC2)c2noc3c2c1C(=O)c1ccccc1-3
IC50: 5.41 µM

O=C(O)c1cc(O)c2c(c1)C(=O)c1cccc(O)c1C2=O
IC50: > 200 µM (inactive)

CCc1nnc(NS(=O)(=O)c2ccc(NC(=S)NC(=O)/C=C/c3ccc(C(C)C)cc3)cc2)s1
IC50: 8.87 µM

O=c1[nH]c(-c2ccc(F)cc2)nc2c1sc(=S)n2-c1ccccc1
IC50: > 200 µM (inactive)

Nc1ccc(S(=O)(=O)Nc2ccc(S(N)(=O)=O)cc2)cc1
IC50: > 200 µM (inactive)

Nc1c(C(=O)NCc2ccco2)c2nc3ccccc3nc2n1Cc1ccccc1
IC50: < 1.56 µM

C=CCn1c(NS(=O)(=O)c2ccccc2)c(S(=O)(=O)c2ccc(C)cc2)c2nc3ccccc3nc21
IC50: < 1.56 µM

Cc1cc(C)nc(N=Nc2c(O)n(Cc3ccc(Cl)cc3)c3ccccc23)n1
IC50: > 200 µM (inactive)

O=C(CCN1CCN(Cc2ccccc2)CC1)Nc1cccc(Cl)c1
IC50: > 200 µM (inactive)

CC1=CC(C)(C)N2C(=O)C(=Nc3ccc(O)cc3)c3cccc1c32
IC50: 5.61 µM

O=C(Nc1ccc(Cl)cc1)c1ccc(S(=O)(=O)N2CCOCC2)cc1
IC50: > 200 µM (inactive)
